Results from patent US12448368B2, “Indole compounds as androgen receptor modulators” (NIDO BIOSCIENCES, INC., priority 2020, dated 2025).

biological target: T1, androgen receptor (AR) (Homo sapiens, UniProt P10275, T878A); experiment: AR reporter assay in LNCaP cells expressing ARR2PB-FireflyLuc and CMV-RenillaLuc, antagonist mode (% remaining activity, IC50); assay type: cell-based; conditions: 48 h at 37° C., class symbols A-D, read-out: IC50
T1 construct: LNCaP cells expressing ARR2PB-FireflyLuc and CMV-RenillaLuc; endogenous in cells; host or cells: LNCaP cells carrying ARR2PB-FireflyLuc and CMV-RenillaLuc reporters
T1 sequence (P10275 1-920 T878A): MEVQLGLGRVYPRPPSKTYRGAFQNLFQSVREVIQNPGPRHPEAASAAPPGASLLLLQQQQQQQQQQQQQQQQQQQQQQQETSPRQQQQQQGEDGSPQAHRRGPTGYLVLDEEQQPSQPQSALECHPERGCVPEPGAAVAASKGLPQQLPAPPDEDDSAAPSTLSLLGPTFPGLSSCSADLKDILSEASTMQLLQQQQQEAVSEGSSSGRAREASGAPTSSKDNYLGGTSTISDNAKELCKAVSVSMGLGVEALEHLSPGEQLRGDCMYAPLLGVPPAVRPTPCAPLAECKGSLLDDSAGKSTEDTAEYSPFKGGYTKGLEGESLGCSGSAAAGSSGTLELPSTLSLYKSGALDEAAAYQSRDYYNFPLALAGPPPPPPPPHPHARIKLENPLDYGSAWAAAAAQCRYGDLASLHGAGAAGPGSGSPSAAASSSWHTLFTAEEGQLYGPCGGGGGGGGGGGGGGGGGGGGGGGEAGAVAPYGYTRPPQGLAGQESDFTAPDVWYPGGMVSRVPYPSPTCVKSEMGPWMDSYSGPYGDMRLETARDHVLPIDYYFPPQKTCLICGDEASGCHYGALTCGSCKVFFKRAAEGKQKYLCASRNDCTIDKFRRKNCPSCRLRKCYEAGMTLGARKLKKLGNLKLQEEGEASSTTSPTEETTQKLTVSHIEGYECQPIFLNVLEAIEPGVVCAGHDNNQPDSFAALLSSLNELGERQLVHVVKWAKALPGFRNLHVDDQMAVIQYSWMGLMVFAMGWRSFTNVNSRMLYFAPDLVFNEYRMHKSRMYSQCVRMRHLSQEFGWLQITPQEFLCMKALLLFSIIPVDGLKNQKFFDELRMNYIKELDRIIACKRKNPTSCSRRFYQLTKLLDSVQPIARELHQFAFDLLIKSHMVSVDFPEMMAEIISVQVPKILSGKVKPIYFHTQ
How it was run: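 LNCaP cells carrying ARR2PB-firefly and CMV-Renilla luciferase reporters were treated 48 h at 37 °C with compound plus 0.5 nM DHT. Signals were normalised between 0.5 nM DHT alone and 10 uM enzalutamide + DHT to give % remaining activity, and IC50 was obtained by non-linear regression.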

Row | IC50 | SMILES
1 | 100 to 1000 nM | COC(C)CNc1ccc(-c2c[nH]c3c(C#N)cccc23)nc1C (stereo not drawn) [Compound 195]
2 | 1000 to 10000 nM | Cc1nc(-c2c[nH]c3c(C#N)cccc23)ccc1NCCN(C)C [Compound 196]
3 | > 10000 nM | Cc1nc(-c2c[nH]c3c(C#N)cccc23)ccc1NCC(=O)N(C)C [Compound 197]
4 | 100 to 1000 nM | Cc1nc(-c2c[nH]c3c(C(F)(F)F)cccc23)cnc1OC1CCNC1 (stereo not drawn) [Compound 198]
5 | 1000 to 10000 nM | Cc1nc(-c2c[nH]c3c(C#N)cccc23)ccc1OC1CCNC1=O (stereo not drawn) [Compound 199]
6 | > 10000 nM | Fc1ccc(-c2c[nH]c3cnccc23)nc1 [Compound 200]
7 | 1000 to 10000 nM | Fc1ccc(-c2c[nH]c3cccnc23)nc1 [Compound 201]
8 | 100 to 1000 nM | Fc1ccc(-c2c[nH]c3cc(F)cnc23)nc1 [Compound 202]
9 | 1000 to 10000 nM | Cc1ccc2c(-c3ccc(F)cc3)c[nH]c2n1 [Compound 203]
10 | 100 to 1000 nM | N#Cc1cc(F)cc2c(-c3ccc4ccc(F)cc4n3)c[nH]c12 [Compound 204]
11 | 100 to 1000 nM | CC1NC(=O)c2ccc(-c3c[nH]c4c(C#N)cccc34)nc21 (stereo not drawn) [Compound 205]
12 | 100 to 1000 nM | CC1(C)NC(=O)c2ccc(-c3c[nH]c4c(C#N)cccc34)nc21 [Compound 206]
13 | 100 to 1000 nM | Cc1nc(-c2c[nH]c3c(Cl)cccc23)ccc1N [Compound 207]
14 | > 10000 nM | Cc1nc(-c2c[nH]c3c(S(C)(=O)=O)cccc23)ccc1N [Compound 208]
15 | 100 to 1000 nM | Nc1ccc(-c2c[nH]c3cc(F)c(F)cc23)nc1Cl [Compound 209]
16 | < 100 nM | Cc1nc(-c2c[nH]c3c(C#N)c(F)ccc23)ccc1N [Compound 210]
17 | > 10000 nM | COc1ccc2c(-c3ccc(N)c(C)n3)c[nH]c2c1C#N [Compound 211]
18 | < 100 nM | Cc1cncc(-c2c[nH]c3c(Cl)cccc23)n1 [Compound 212]
19 | 100 to 1000 nM | N#Cc1cccc2c(-c3cncc(N4CCC4)n3)c[nH]c12 [Compound 213]
20 | 100 to 1000 nM | CCc1nc(-c2c[nH]c3c(C#N)cccc23)cnc1N [Compound 214]
21 | < 100 nM | COc1cncc(-c2c[nH]c3c(C#N)cccc23)n1 [Compound 215]
22 | 100 to 1000 nM | CC1(C)NC(=O)c2ccc(-c3c[nH]c4cc(F)ccc34)nc21 [Compound 216]
23 | 100 to 1000 nM | CN1C(=O)c2ccc(-c3c[nH]c4c(Cl)cccc34)nc2C1(C)C [Compound 217]
24 | 100 to 1000 nM | CC1(C)NC(=O)c2ccc(-c3c[nH]c4c(Cl)cccc34)nc21 [Compound 218]
25 | 100 to 1000 nM | Cc1nc(-c2c[nH]c3c(C#N)cccc23)ccc1NCC(C)(C)O [Compound 219]

Row | IC50 | SMILES
26 | 100 to 1000 nM | Cc1nc(-c2c[nH]c3c(C#N)cccc23)ccc1NCCN [Compound 220]
27 | 100 to 1000 nM | COCC(C)Nc1ccc(-c2c[nH]c3c(C#N)cccc23)nc1C (stereo not drawn) [Compound 221]
28 | 1000 to 10000 nM | N#Cc1cccc2c(-c3cnc(OC4CCNC4)cn3)c[nH]c12 (stereo not drawn) [Compound 222]
29 | 1000 to 10000 nM | Cc1nc(-c2c[nH]c3c(C#N)cccc23)cnc1OC1C2CNCC21 (stereo not drawn) [Compound 224]
30 | > 10000 nM | Cc1nc(OC2C3CNCC32)cnc1-c1c[nH]c2c(C#N)cccc12 (stereo not drawn) [Compound 225]
31 | 100 to 1000 nM | N#Cc1cccc2c(-c3cnc(NC4CCNC4)c(OC(F)F)n3)c[nH]c12 (stereo not drawn) [Compound 226]
32 | > 10000 nM | Cc1nc(-c2c[nH]c3c(C#N)cccc23)cnc1N1CCC(N)C1 (stereo not drawn) [Compound 227]
33 | > 10000 nM | COCC(COC)Nc1ncc(-c2c[nH]c3c(C#N)cccc23)nc1C [Compound 228]
34 | 100 to 1000 nM | N#Cc1cccc2c(-c3ccc(OC4CCNC4)c(F)c3)c[nH]c12 (stereo not drawn) [Compound 229]
35 | 100 to 1000 nM | Cc1nc(-c2c[nH]c3c(C#N)cccc23)ccc1OC1CCNC1 (stereo not drawn) [Compound 230]
36 | > 10000 nM | Cc1nc(-c2c[nH]c3c(C#N)cccc23)cnc1NC1CCNCC1 [Compound 231]
37 | > 10000 nM | Cc1nc(-c2c[nH]c3c(C#N)cccc23)cnc1NC1CCCNC1 (stereo not drawn) [Compound 232]
38 | > 10000 nM | Cc1nc(-c2c[nH]c3c(C#N)cccc23)cnc1OC1CCNCC1 [Compound 233]
39 | > 10000 nM | Cc1nc(-c2c[nH]c3c(C#N)cccc23)cnc1OC1CCCNC1 (stereo not drawn) [Compound 234]
40 | > 10000 nM | CC1(C)c2nc(-c3c[nH]c4c(C#N)cccc34)ccc2C(=O)N1CCCO [Compound 235]
41 | > 10000 nM | CC1(C)c2nc(-c3c[nH]c4c(C#N)cccc34)ccc2C(=O)N1CCCCO [Compound 236]
42 | 100 to 1000 nM | N#Cc1cccc2c(-c3ccc(OC4CCNC4)c(Cl)n3)c[nH]c12 (stereo not drawn) [Compound 237]
43 | 1000 to 10000 nM | Cc1nc(-c2c[nH]c3c(Cl)cccc23)ccc1OC1CCNC1 (stereo not drawn) [Compound 238]
44 | 1000 to 10000 nM | Cc1nc(-c2c[nH]c3c(C#N)cccc23)cnc1OC1CNC1 [Compound 239]
45 | 100 to 1000 nM | CC(=O)N1CC(Oc2ncc(-c3c[nH]c4c(C#N)cccc34)nc2C)C1 [Compound 240]
46 | 1000 to 10000 nM | N#Cc1cccc2c(-c3ccc(OC4CCNC4)c(Cl)c3)c[nH]c12 (stereo not drawn) [Compound 241]
47 | > 10000 nM | N#Cc1cccc2c(-c3cnc(OC4CCNC4)c(OC(F)F)n3)c[nH]c12 (stereo not drawn) [Compound 244]
48 | 1000 to 10000 nM | N#Cc1cccc2c(-c3cnc(OC4CCNC4)c(C(F)(F)F)n3)c[nH]c12 (stereo not drawn) [Compound 245]
49 | 100 to 1000 nM | Cc1nc(-c2c[nH]c3c(C#N)cccc23)cnc1OC[C@H]1[C@@H]2CNC[C@@H]21 [Compound 246]
50 | 1000 to 10000 nM | Cc1nc(-c2c[nH]c3c(C#N)cccc23)cnc1OC[C@@H]1[C@@H]2CNC[C@@H]21 [Compound 247]

Row | IC50 | SMILES
51 | 1000 to 10000 nM | Cc1nc(-c2coc3c(Cl)cccc23)cnc1N [Compound 248]
52 | > 10000 nM | CCc1nc(-c2c[nH]c3c(C#N)cccc23)cnc1OC1CCNC1 (stereo not drawn) [Compound 249]
53 | 100 to 1000 nM | COc1nc(-c2c[nH]c3c(C#N)cccc23)cnc1NC1CCNC1 (stereo not drawn) [Compound 250]
54 | 1000 to 10000 nM | CCOc1nc(-c2c[nH]c3c(C#N)cccc23)cnc1NC1CCNC1 (stereo not drawn) [Compound 251]
55 | 1000 to 10000 nM | N#Cc1cccc2c(-c3ccc(OC4CCNC4)c(C(F)(F)F)n3)c[nH]c12 (stereo not drawn) [Compound 252]
56 | > 10000 nM | CCc1nc(-c2c[nH]c3c(Cl)cccc23)cnc1OC1CCNC1 (stereo not drawn) [Compound 253]
57 | 1000 to 10000 nM | Fc1cc(-c2c[nH]c3c(Cl)cccc23)ccc1OC1CCNC1 (stereo not drawn) [Compound 254]
58 | 1000 to 10000 nM | Cc1nc(-c2n[nH]c3cc(F)c(F)cc23)ccc1OC1CCNC1 (stereo not drawn) [Compound 255]
59 | 1000 to 10000 nM | Cc1nc(-c2n[nH]c3c(Cl)cccc23)ccc1OC1CCNC1 (stereo not drawn) [Compound 256]
60 | 100 to 1000 nM | CC(=O)N1CCC(Oc2ncc(-c3c[nH]c4c(Cl)cccc34)nc2C)C1 (stereo not drawn) [Compound 257]
61 | 100 to 1000 nM | CC(=O)N1CCC(Oc2ncc(-c3c[nH]c4c(C(F)(F)F)cccc34)nc2C)C1 (stereo not drawn) [Compound 258]
62 | 100 to 1000 nM | CC(=O)N1CCC(Oc2ncc(-c3c[nH]c4c(C#N)cccc34)nc2Cl)C1 (stereo not drawn) [Compound 259]
63 | 100 to 1000 nM | CC(=O)N1CCC(Oc2ccc(-c3c[nH]c4c(C#N)cccc34)nc2C)C1 (stereo not drawn) [Compound 260]
64 | 100 to 1000 nM | CC(=O)N1CCC(Oc2ccc(-c3c[nH]c4c(C#N)cccc34)nc2Cl)C1 (stereo not drawn) [Compound 261]
65 | 100 to 1000 nM | CC(=O)N1CCC(Oc2ccc(-c3c[nH]c4c(C#N)cccc34)nc2C(F)(F)F)C1 (stereo not drawn) [Compound 262]
66 | 100 to 1000 nM | CC(=O)N(C)CCOc1ncc(-c2c[nH]c3c(Cl)cccc23)nc1C [Compound 263]
67 | 100 to 1000 nM | CC1(C)NC(=O)c2ccc(-c3c[nH]c4c(C#N)cccc34)cc21 [Compound 264]
68 | < 100 nM | COc1nc(-c2c[nH]c3c(C#N)cccc23)cnc1NC1CCN(C(C)=O)C1 (stereo not drawn) [Compound 265]
69 | > 10000 nM | CC1(CO)NC(=O)c2ccc(-c3c[nH]c4c(C#N)cccc34)nc21 (stereo not drawn) [Compound 266]
70 | > 10000 nM | CCc1nc(-c2c[nH]c3c(C#N)cccc23)cnc1OCCN [Compound 267]
71 | 100 to 1000 nM | CCc1nc(-c2c[nH]c3c(C#N)cccc23)cnc1OC1CCN(C(C)=O)C1 (stereo not drawn) [Compound 268]
72 | 100 to 1000 nM | CC(=O)N1CCC(Oc2ncc(-c3c[nH]c4c(C#N)cccc34)nc2C(F)(F)F)C1 (stereo not drawn) [Compound 269]
73 | > 10000 nM | CC1(C)NC(=O)c2cnc(-c3c[nH]c4c(C#N)cccc34)cc21 [Compound 270]
74 | > 10000 nM | CC1(C)NC(=O)c2ncc(-c3c[nH]c4c(C#N)cccc34)cc21 [Compound 271]

Row | SMILES | IC50
75 | Cc1nc(-c2c[nH]c3c(C#N)cccc23)cnc1OC1CC2CCC1N2 (stereo not drawn) [Compound 223] | 1000 to 10000 nM
